Patent US12329753B2, “Phosphodiesterase inhibitor treatment” (Cyrano Therapeutics, Inc., priority 2008, dated 2025)

Legend:
Hyposmic patients = assay: Open label trial of inhalable PDE inhibitor in hyposmic patients (Examples 3, 4); format: in vivo, human; details: nasal administration, not more than 500 μg
Protocol: Hyposmic patients for whom the etiology of smell loss is not associated with head injury or allergic rhinitis are enrolled in an open label trial of inhalable theophylline. Patients are started at an initial dose of not more than 500 μg formulated as a liquid spray or dry powder to be delivered as a metered dose. Initially only local patients are enrolled so that quicker dose titration is achieved. Groups of 5 patients are started on not more than 500 μg of theophylline and continued for 1 month.
Patients are tested for improvement in smell acuity using the standard forced choice technique using four odors as described in Example 1. Additionally, subjective measurements of smell function are obtained using a scale from 0-100 as described in Example 1. Blood samples are also drawn to ascertain blood theophylline level to gauge its relationship to the expected recovery of smell.
Hyposmic patients for whom the etiology of smell loss is not associated with head injury or allergic rhinitis are enrolled in an open label trial of an inhalable PDE1 inhibitor. […]

asthmatic patients = assay: sGaw after inhaled dry powder in asthmatic patients, single blind study (Examples 5, 6); format: in vivo, human; details: dry powder 2 mg inhaled
Protocol: (§1) To test this theory, asthmatic patients are enrolled in a dose escalating single blind study. On arrival to the clinic, subjects are allowed to rest for 20 minutes before baseline measurements of FEV1 (six recordings) and sGaw (five recordings) are made. Subjects receive a dry powder dispenser loaded with a dose of 2 mg theophylline or a dry powder carrier. […] After each inhalation, measurements of sGaw are made at 1, 3, 5, 10, 15, 20, 25, and 30 minutes.
On completion of the last recording, subjects inhale a 200 μg dose of salbutamol from a metered inhaler and a further measurement of sGaw is made after 15 minutes. Subjects are also monitored for coughing and are questioned about the taste of the drug.
as §1, with “Asthmatic patients” for “To test this theory, asthmatic patients”, “of 1” for “of 2”, “mg IBMX formulated as a dry powder” for “mg theophylline”
On completion of the last recording, subjects inhale a 200 μg dose of salbutamol from a metered inhaler and a further measurement of sGaw mad after 15 minutes. Subjects are also be monitored for coughing and are questioned about the taste of the drug.

## Cn1c(=O)c2[nH]cnc2n(C)c1=O [theophylline]
Hyposmic patients
  recovery of smell acuity versus oral administration: at least an equivalent recovery of smell acuity
Asthmatic patients
  increase in sGaw versus 200 μg salbutamol: comparable to that produced by salbutamol
Asthmatic patients; after 30 minutes
  sGaw above baseline measurement: 20%
